Results published in patent US9839701B2, “Aromatic amino acid derivative and positron emission topography (PET) probe using the same” (OSAKA UNIVERSITY, priority 2013, dated 2017).

T1: human LAT2 (Homo sapiens, UniProt Q9UHI5)
T1 construct: expressed in transfected cells
T1 sequence (Q9UHI5 1-535): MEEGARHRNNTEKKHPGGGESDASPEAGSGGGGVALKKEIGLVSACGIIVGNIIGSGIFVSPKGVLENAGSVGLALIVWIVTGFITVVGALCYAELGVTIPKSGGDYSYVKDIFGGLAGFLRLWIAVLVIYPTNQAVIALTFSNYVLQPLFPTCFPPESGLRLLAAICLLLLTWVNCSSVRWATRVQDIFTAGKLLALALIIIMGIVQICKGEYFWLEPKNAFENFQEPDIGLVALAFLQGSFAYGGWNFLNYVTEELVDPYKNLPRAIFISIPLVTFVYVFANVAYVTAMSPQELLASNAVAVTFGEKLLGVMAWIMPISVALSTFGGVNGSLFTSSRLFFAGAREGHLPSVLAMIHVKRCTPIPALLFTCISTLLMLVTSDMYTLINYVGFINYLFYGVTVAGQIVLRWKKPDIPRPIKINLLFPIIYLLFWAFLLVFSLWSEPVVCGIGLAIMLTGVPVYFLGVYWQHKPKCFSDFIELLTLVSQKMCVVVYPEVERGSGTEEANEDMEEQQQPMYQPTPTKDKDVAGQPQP
T1 sequence (P08195 1-529 partner): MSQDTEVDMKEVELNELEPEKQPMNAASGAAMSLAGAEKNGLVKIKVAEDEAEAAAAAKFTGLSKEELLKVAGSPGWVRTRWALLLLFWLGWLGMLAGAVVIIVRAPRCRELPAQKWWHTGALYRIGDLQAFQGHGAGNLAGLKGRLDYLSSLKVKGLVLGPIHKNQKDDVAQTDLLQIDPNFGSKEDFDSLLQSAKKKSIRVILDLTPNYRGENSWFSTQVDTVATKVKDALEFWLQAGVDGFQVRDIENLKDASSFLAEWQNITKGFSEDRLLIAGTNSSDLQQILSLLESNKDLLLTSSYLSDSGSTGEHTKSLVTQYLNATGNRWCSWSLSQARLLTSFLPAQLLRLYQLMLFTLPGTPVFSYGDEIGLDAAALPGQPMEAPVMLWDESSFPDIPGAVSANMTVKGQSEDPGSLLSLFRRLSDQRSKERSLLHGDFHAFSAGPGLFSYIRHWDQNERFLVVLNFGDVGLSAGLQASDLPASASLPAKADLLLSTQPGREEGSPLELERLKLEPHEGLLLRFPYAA


Legend:
Format in all cases: cell-based
human LAT1 = biological target: T2, human LAT1 (Homo sapiens, UniProt Q01650); experiment: Inhibition of amino acid uptake in human LAT1 stably expressing cell line; details: compound at 30 μM
T2 construct: expressed in transfected cells
Description: (§1) A human LAT1 expression vector or a human LAT2 expression vector was transfected using Lipofectamine (registered trademark) 2000 (Invitrogen) into a human embryonic kidney cell line HEK293. G418-resistant HEK293 clones were selected, and among them, a clone showing human LAT1-specific amino acid uptake and a clone showing human LAT2-specific amino acid uptake were selected and established as a human LAT1 stably expressing cell line and a human LAT2 stably expressing cell line, respectively (Khunweeraphong et al. J Pharmacol Sci. 2012 Aug. 18; 119(4): 368-80. Epub 2012 Jul. 31).
(§2) The human LAT1 stably expressing cell line and the human LAT2 stably expressing cell line were seeded at 1.2×10^5 cells/well on separate collagen-coated 24-well plates, and after 48 hours, the cells were washed 3 times with an uptake buffer (Na^2+-free Hank's balanced salt solution (HBSS), pH 7.4) prewarmed at 37° C. Compound 10a, compound 10b or a positive control FAMT (fluoro-α-methyltyrosine) was added at 100 μM, and incubation was performed at 37° C. for 3 minutes. Cells not treated with any of these compounds were used as a negative control. After the incubation, 1 μM of [^14C]L-leucine or [^14C]alanine was added to the wells, [^14C]L-leucine or [^14C]alanine uptake was allowed to proceed for 1 minute, and the cells were washed 3 times with an ice-cold uptake buffer. Subsequently, 500 μL of 0.1 M NaOH was added to each well for cell lysis, 20 μL of the lysate was used for the measurement of the protein concentration, and the remaining lysate was used for the measurement of the intracellular radioactivity. The measured radioactivity was normalized to the protein concentration, and on the assumption that the amino acid uptake activity in the negative control was 100%, the percentage (%) of inhibition of amino acid uptake in the presence of each compound was calculated.
(§3) Using the same cell lines as described in Example 2, the compound of Example 1 was examined for the inhibitory effect on leucine or alanine uptake in the human LAT1 stably expressing cell line and the human LAT2 stably expressing cell line in the same manner as in Example 2. FAMT was used as the positive control. The compound of Example 1 or FAMT was added at 100 μM. Cells not treated with either of these compounds were used as a negative control. On the assumption that the amino acid uptake activity in the negative control (control) was 100%, the percentage (%) of inhibition of amino acid uptake in the presence of FAMT or the compound of Example 1 was calculated. In addition, the cancer cell selectivity was calculated as the ratio of the amino acid uptake activity in the human LAT2 stably expressing cell line relative to that in the human LAT1 stably expressing cell line.
(§4) In another experiment, the cells were treated with the compound of Example 1 at eight different concentrations (0.1, 1, 3, 10, 30, 100, 300 and 1000 μM), and the concentration causing 50% inhibition of amino acid uptake was calculated as the IC50 value.
(§5) A human LAT1 stably expressing cell line and a human LAT2 stably expressing cell line, each of which was the same as described in Example 2, were seeded at 1.2×10^5 cells/well, and after 48 hours, the cells were washed 3 times with an uptake buffer (Na^2+-free Hank's balanced salt solution (HBSS), pH 7.4) prewarmed at 37° C. The test compounds, L-tyrosine or the positive control FAMT (fluoro-α-methyltyrosine) was added at 30 μM, and incubation was performed at 37° C. for 3 minutes. Cells not treated with any of these compounds were used as a negative control. After the incubation, 1 μM of [^14C]L-leucine or [^14C]alanine was added to the wells, [^14C]L-leucine or [^14C]alanine uptake was allowed to proceed for 1 minute, and the cells were washed 3 times with an ice-cold uptake buffer. […]

human LAT2 = biological target: T1, human LAT2; experiment: Inhibition of amino acid uptake in human LAT2 stably expressing cell line; details: compound at 30 μM; human LAT2 stably expressing HEK293 cell line; 30 µM
Description: as §1, §2, §3, §4, §5

[1] = substrate: N[C@@H](Cc1ccc(O)cc1)C(=O)O; experiment: Promoting effect on amino acid efflux from human LAT2 stably expressing cell line; details: other: Km for amino acid efflux, Table 7; 37.0 °C
Experimental: In the same manner as in Example 3, the human LAT1 stably expressing cell line and the human LAT2 stably expressing cell line were seeded on separate collagen-coated 24-well plates, and after 48 hours, the cells were washed with an uptake buffer prewarmed at 37° C. An uptake buffer supplemented with 1 μM of [^14C]L-leucine or [^14C]L-alanine was added to each well, and [^14C]L-leucine or [^14C]L-alanine uptake by the cells was allowed to proceed at 37° C. for 10 minutes. The cells were washed with an uptake buffer prewarmed at 37° C., treated with the compound of Example 1 or the positive control FAMT at 1, 2, 3, 5, 10, 20, 50, 100 or 200 μM, and incubated at 37° C. for 1 minute, and the supernatants were collected. The radioactivity in each supernatant was measured as the radioactivity of the amino acid released from the cells. Subsequently, 500 μL of 0.1 M NaOH was added to each well for cell lysis, 20 μL of the lysate was used for the measurement of the protein concentration, and the remaining lysate was used for the measurement of the residual radioactivity in the cells. The sum of the residual radioactivity and the released radioactivity in each experiment was checked to confirm that there was no great difference in the total radioactivity incorporated into the cells at the preloading among the experiments. […]

T2 sequence (Q01650 whole entry, one chain of several): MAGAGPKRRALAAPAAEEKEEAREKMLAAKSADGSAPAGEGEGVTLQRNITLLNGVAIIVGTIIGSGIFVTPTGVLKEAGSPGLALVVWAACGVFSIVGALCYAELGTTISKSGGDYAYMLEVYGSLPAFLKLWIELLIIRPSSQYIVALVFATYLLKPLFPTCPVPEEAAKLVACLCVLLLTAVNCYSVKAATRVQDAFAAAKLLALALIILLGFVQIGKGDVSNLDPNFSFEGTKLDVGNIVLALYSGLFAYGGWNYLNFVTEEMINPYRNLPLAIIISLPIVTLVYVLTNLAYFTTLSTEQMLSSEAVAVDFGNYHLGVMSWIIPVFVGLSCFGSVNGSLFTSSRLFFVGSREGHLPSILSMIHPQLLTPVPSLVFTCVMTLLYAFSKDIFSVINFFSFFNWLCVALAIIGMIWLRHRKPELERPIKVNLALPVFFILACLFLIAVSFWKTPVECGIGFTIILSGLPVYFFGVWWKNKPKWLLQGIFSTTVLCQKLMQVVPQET

Molecule	Cancer cell selectivity (amino acid uptake activity in human LAT2 line / in human LAT1 line) (human LAT1)	Percentage of inhibition of LAT1-mediated amino acid uptake (human LAT1; human LAT1 stably expressing HEK293 cell line, 30 µM)	Percentage of inhibition of LAT2-mediated amino acid uptake (human LAT2)	Km [1]
NC(Cc1cc(OCCF)ccc1C1CC1)C(=O)O (single isomer, unassigned) [compound 23b, 2-amino-3-(2-cyclopropyl-5-(2-fluoroethoxy)phenyl)propanoic acid]	11.2	94.5%	39.9%	–
human LAT2 (Homo sapiens) (protein, expressed in transfected cells) MEEGARHRNNTEKKHPGGGESDASPEAGSGGGGVALKKEIGLVSACGIIVGNIIGSGIFVSPKGVLENAGSVGLALIVWIVTGFITVVGALCYAELGVTIPKSGGDYSYVKDIFGGLAGFLRLWIAVLVIYPTNQAVIALTFSNYVLQPLFPTCFPPESGLRLLAAICLLLLTWVNCSSVRWATRVQDIFTAGKLLALALIIIMGIVQICKGEYFWLEPKNAFENFQEPDIGLVALAFLQGSFAYGGWNFLNYVTEELVDPYKNLPRAIFISIPLVTFVYVFANVAYVTAMSPQELLASNAVAVTFGEKLLGVMAWIMPISVALSTFGGVNGSLFTSSRLFFAGAREGHLPSVLAMIHVKRCTPIPALLFTCISTLLMLVTSDMYTLINYVGFINYLFYGVTVAGQIVLRWKKPDIPRPIKINLLFPIIYLLFWAFLLVFSLWSEPVVCGIGLAIMLTGVPVYFLGVYWQHKPKCFSDFIELLTLVSQKMCVVVYPEVERGSGTEEANEDMEEQQQPMYQPTPTKDKDVAGQPQP	–	–	–	32.7 µM
